# According to patent US11285142B2, “Compositions and methods for identifying and treating dystonia disorders” (DUKE UNIVERSITY, priority 2015, dated 2022):
# Entries after “also recorded” stand apart in the source; their conditions may differ. Counter-ions that a name gives are not always drawn. Like-named read-outs stand apart in the source and are kept apart here.
# How the values were obtained:
# luciferase secretion = test: C.Luc. Secretion Assay (luciferase secretion, secretory deficits); assay type: cell-based; conditions: for C.Luc. Secretion Assay Secretion EC50 / EC50 / Emax: Table 5; for Emax: read-out: C.Luc. Secretion Assay Secretion Max Efficacy; for correction of secretory deficits (in words): orthogonal assays
# Procedure: We tested each shRNA for its ability to rescue a previously described defect in luciferase secretion. Chen, P. et al. (2010) Hum. Mol. Genet. 19, 3502-15; Cao, S. et al. (2010) Dis. Model. Mech. 3, 386-96; Barrows, N. J., et al., (2010)J. Biomol. Screen. 15, 735-47.) DYT1 patient data were obtained from 4 independent patient-derived lines and WT data (black bar) from 3 normal healthy control lines. Each line was tested in 5 independent experiments that included 4 technical replicates each (with the exception of SCD data from 3 independent experiments).
# (Cao, S. et al. (2010) Dis. Model. Mech. 3, 386-96.) Subsequent testing of additional HIV protease inhibitors supported the activity of this class of compounds and generated favorable structure-activity relationship (SAR) data from which to design improved compounds (Tables 5 and 6). The results with a subset of compounds were also observed in a Luciferase secretion assay (Tables 5 and 6).
# [1] = test system: delta-E Torsin1a localization in Flp-In T-REx 293 cells expressing EGFP-delta-E Torsin1a; test: delta-E Torsin1a mis-localization assay (high-content imaging, % cells with EGFP puncta); assay type: cell-based, human; conditions: for EC50 / Emax / ΔE TorsinA Mislocalization Assay Localization EC50: Table 5; for EC50: read-out: ΔE TorsinA Mislocalization Assay Localization EC50; for Emax: read-out: ΔE TorsinA Mislocalization Assay Localization Max Efficacy; for effect on delta-E Torsin1a localization (in words): delta-E cell line, dose response; for AC50 / % pathology Max Resp / % pathology Efficacy / % pathology CC-v2 (dose response Curve Class): Table 6; for AC50: AC = Active Concentration, read-out: % pathology AC50; for % pathology Max Resp / % pathology Efficacy: normalized scale; for % pathology Max Resp: WT-TorsinA line 0%, DYT1 mutant line 100% pathology; for % pathology Efficacy: −100% = WT TorsinA phenotype, 0% = Mutant TorsinA phenotype
# Procedure: To limit variation in expression levels associated with random integration or transient expression, single copies of either WT or delta-E human TOR1A cDNAs with N-terminal EGFP fusions were inserted at the FRT site in Flp-In™ T-Rex™ 293 cells (Thermo Fisher Scientific #R780-07) via flippase recombinase-mediated cassette exchange according to the manufacturer's recommended protocols.
# The cells were maintained at 37° C./5% CO2. All experiments were performed on cells with fewer than 5 passages.
# Torsin1a expression was also controlled by tetracycline induction to avoid selective pressure modifying the cellular phenotypes. […] The mutant phenotype was measured as the percentage of cells with one or more EGFP puncta using automated high-content imaging analysis (see infra).
# The image analysis algorithm was developed using the Cellomics ArrayScan V CompartmentAnalysisV2 protocol. Hoechst's nuclear staining (Ch1: excitation 350 nm; emission 461 nm) was used for focusing and for cell identification by nuclear size, shape, and intensity. […] Detected cells were gated according to nuclear area, length-to-width ratio, and perimeter-to-area ratio. For the purpose of analysis, cell bodies were defined by a radius of 10 μm from the outer edge of the defined nucleus. Overlapping cells were automatically segmented according to the Cellomics ArrayScanV CompartmentAnalysisV2 object segmentation feature. EGFP fluorescence (Ch2: excitation 488 nm; emission 509 nm) was used for puncta detection. […] Torsin1a puncta were identified using the spot detection feature of the Compartmental AnalysisV2 protocol. The percentage of cells containing one or more puncta was used as the primary metric in this assay.
# (§1) In order to test this model directly, the delta-E Torsin1a cell line was treated with compounds targeting the eIF2-alpha signaling pathway (FIG. 2). […] The following day, serial drug dilutions were prepared at 2× final concentration in assay media containing 10 μg/mL tetracycline and 30 μL of the drug/tetracycline mixture was added to the appropriate wells, while control wells received 30 μL of assay media alone or assay media+10 μg/mL tetracycline (final tetracycline concentration for all wells except negative controls: 5 μg/mL). Cells were then incubated at 37° C./5% CO^2 for 48 hours and fixed, permeabilized, Hoechst stained, and imaged as described above. The range of the Torsin1a localization effect was normalized to the percentage of cells with puncta in vehicle-treated delta-E cell line as the maximum and that in WT cell line as the minimum (FIG. 2, panels c-h). Cell count and EGFP-Torsin1a expression were normalized to their respective values in the vehicle-treated delta-E cell line as the maximum. All dose response data are the average of 4 independent experiments per dose. Untreated control data used for normalization are the average of 24 independent experiments.
# [2] = test system: Flp-In T-REx 293 cells expressing delta-E Torsin1a; test: Cytotoxicity (cell count, cellular morphology) in the Torsin1a assay cell line; assay type: cell-based, human; conditions: for toxicity (cell count, cellular morphology; in words): at effective concentrations; for ΔE TorsinA Mislocalization Assay Cytotoxicity EC50: Table 5; for Cytotox CC-v2 (dose response Curve Class) / Cytotox Efficacy / Cytotox Max Resp / AC50: Table 6; for AC50: read-out: Cytotox AC50
# Procedure: as §1
# (§2) Efficacy is calculated as the magnitude of the pathology correction relative to the mutant Torsin1a pathology. For example an efficacy=−100% would be equivalent to the WT TorsinA phenotype, and 0% would be equivalent to the Mutant TorsinA phenotype. CCv2 refers to the dose response Curve Class annotation, and AC refers to Active Concentration.
# [3] = as above; assay type: cell-based, human; conditions: human; for EC50 at 48 h: Flp-In T-REx 293 cells inducibly expressing delta-E Torsin1a, Table 5, read-out: ΔE TorsinA Mislocalization Assay Cytotoxicity EC50; for AC50: Table 6, read-out: Cytotox AC50
# Procedure: as §1, §2
smiles,measurement,setting,value
"Cc1c(O)cccc1C(=O)N[C@@H](CSc1ccccc1)[C@H](O)CN1C[C@H]2CCCC[C@H]2C[C@H]1C(=O)NC(C)(C)C [Nelfinavir, nelfinavir]",C.Luc. Secretion Assay Secretion EC50,luciferase secretion,No Activity
same,EC50,"[1]; Homo sapiens, Flp-In-T-REx-293",3.49 µM
same,Emax,"[1]; Homo sapiens, Flp-In-T-REx-293",80%
same,effect on delta-E Torsin1a localization (in words),[1],corrected TorsinA localization in a dose-dependent fashion
same,"toxicity (cell count, cellular morphology; in words)",[2],no cellular toxicity observed at effective doses
same,EC50 at 48 h,[3],6.05 µM
N=C(N)N/N=C/c1c(Cl)cccc1Cl [guanabenz],effect on delta-E Torsin1a localization (in words),[1],no effect
CC(C)CN(C[C@@H](O)[C@H](Cc1ccccc1)NC(=O)O[C@H]1CCOC1)S(=O)(=O)c1ccc(N)cc1 [Amprenavir],C.Luc. Secretion Assay Secretion EC50,luciferase secretion,No Activity
same,ΔE TorsinA Mislocalization Assay Localization EC50,[1],No Activity
same,ΔE TorsinA Mislocalization Assay Cytotoxicity EC50,[2],None
same,Cytotox CC-v2 (dose response Curve Class),[2],4
Cc1c(O)cccc1C(=O)N[C@@H](CSc1ccccc1)[C@H](O)CN1C[C@H]2CCCC[C@H]2C[C@H]1C(=O)NC(C)(C)C [Viracept],AC50,"[1]; Homo sapiens, Flp-In-T-REx-293",5.26 µM
same,% pathology Max Resp,[1],−94.06%
same,% pathology Efficacy,[1],−119.39%
same,Cytotox CC-v2 (dose response Curve Class),[2],−1.1
same,Cytotox Efficacy,[2],−106.32
same,Cytotox Max Resp,[2],−97.72
same,AC50,[3],10.5 µM
COC(=O)N[C@H](C(=O)N[C@@H](Cc1ccccc1)[C@@H](O)CN(Cc1ccc(-c2ccccn2)cc1)NC(=O)[C@@H](NC(=O)OC)C(C)(C)C)C(C)(C)C [Atazanavir],C.Luc. Secretion Assay Secretion EC50,luciferase secretion,No Activity
same,ΔE TorsinA Mislocalization Assay Localization EC50,[1],No Activity
same,ΔE TorsinA Mislocalization Assay Cytotoxicity EC50,[2],None
same,Cytotox CC-v2 (dose response Curve Class),[2],4
"CC(C)c1nc(CN(C)C(=O)N[C@H](C(=O)N[C@@H](Cc2ccccc2)C[C@H](O)[C@H](Cc2ccccc2)NC(=O)OCc2cncs2)C(C)C)cs1 [Ritonavir, ritonavir]",EC50,luciferase secretion,3.72 µM
same,Emax,luciferase secretion,49%
same,correction of secretory deficits (in words),luciferase secretion,corrected secretory deficits
same,EC50,"[1]; Homo sapiens, Flp-In-T-REx-293",4.11 µM
same,Emax,"[1]; Homo sapiens, Flp-In-T-REx-293",87%
same,AC50,"[1]; Homo sapiens, Flp-In-T-REx-293",2.96 µM
same,% pathology Max Resp,[1],−82.60%
same,% pathology Efficacy,[1],−92.96%
same,effect on delta-E Torsin1a localization (in words),[1],corrected TorsinA localization in a dose-dependent fashion; also recorded: restored
same,Cytotox CC-v2 (dose response Curve Class),[2],4
same,"toxicity (cell count, cellular morphology; in words)",[2],no cellular toxicity observed at effective doses
"CC(C)(C)NC(=O)[C@@H]1CN(Cc2cccnc2)CCN1C[C@@H](O)C[C@@H](Cc1ccccc1)C(=O)N[C@H]1c2ccccc2C[C@H]1O [Indinavir, indinavir]",C.Luc. Secretion Assay Secretion EC50,luciferase secretion,No Activity
same,EC50,"[1]; Homo sapiens, Flp-In-T-REx-293",26.5 µM
same,Emax,"[1]; Homo sapiens, Flp-In-T-REx-293",114%
same,effect on delta-E Torsin1a localization (in words),[1],corrected TorsinA localization in a dose-dependent fashion
same,"toxicity (cell count, cellular morphology; in words)",[2],no cellular toxicity observed at effective doses
same,EC50 at 48 h,[3],35.2 µM
CS(=O)(=O)O.Cc1c(O)cccc1C(=O)N[C@@H](CSc1ccccc1)[C@H](O)CN1C[C@H]2CCCC[C@H]2C[C@H]1C(=O)NC(C)(C)C.O [Nelfinavir mesylae hydrate],% pathology CC-v2 (dose response Curve Class),[1],−1.1
same,AC50,[1],2.7 µM
same,% pathology Max Resp,[1],−92.46%
same,% pathology Efficacy,[1],−75.26%
same,Cytotox CC-v2 (dose response Curve Class),[2],−1.1
same,Cytotox Efficacy,[2],−98.05
same,Cytotox Max Resp,[2],−95.64
same,AC50,[2],6.05 µM
CCN(CC)CCC(=O)N1N=C(c2c(-c3ccccc3)c3cc(Br)ccc3[nH]c2=O)CC1c1ccc(Br)cc1 (stereo not shown) [CCT020312],effect on delta-E Torsin1a localization (in words),[1],dose-dependent reduction
same,"toxicity (cell count, cellular morphology; in words)",[2],highly toxic at effective concentrations
C[C@H](NC(=O)Cc1cc(F)cc(F)c1)C(=O)N[C@H](C(=O)OC(C)(C)C)c1ccccc1 [DAPT],effect on delta-E Torsin1a localization (in words),[1],no effect
Cc1cccc(C)c1OCC(=O)NC(CCC(Cc1ccccc1)NC(=O)C(C(C)C)N1CCCNC1=O)Cc1ccccc1 (stereo not shown) [Des-hydroxy Lopinavir],% pathology CC-v2 (dose response Curve Class),[1],−3
same,AC50,[1],8.33 µM
same,% pathology Max Resp,[1],−33.96%
same,% pathology Efficacy,[1],−82.44%
same,Cytotox CC-v2 (dose response Curve Class),[2],−2.2
same,Cytotox Efficacy,[2],−77.66
same,Cytotox Max Resp,[2],−66.67
same,AC50,[2],20.9 µM
CC(C)(C)NC(=O)[C@@H]1CN(Cc2cccnc2)CCN1C[C@@H](O)C[C@@H](Cc1ccccc1)C(=O)N[C@H]1c2ccccc2C[C@H]1O [Indinavir sulfate],AC50,"[1]; Homo sapiens, Flp-In-T-REx-293",29.6 µM
same,% pathology Max Resp,[1],−97.76%
same,% pathology Efficacy,[1],−114.60%
same,Cytotox CC-v2 (dose response Curve Class),[2],−3
same,Cytotox Efficacy,[2],−80.64
same,Cytotox Max Resp,[2],−67.80
same,AC50,[3],37.2 µM
"CC(C)(C)NC(=O)[C@@H]1C[C@@H]2CCCC[C@@H]2CN1C[C@@H](O)[C@H](Cc1ccccc1)NC(=O)[C@H](CC(N)=O)NC(=O)c1ccc2ccccc2n1 [Saquinavir, saquinavir]",EC50,luciferase secretion,8.09 µM
same,Emax,luciferase secretion,34%
same,correction of secretory deficits (in words),luciferase secretion,corrected secretory deficits
same,EC50,"[1]; Homo sapiens, Flp-In-T-REx-293",9.41 µM
same,Emax,"[1]; Homo sapiens, Flp-In-T-REx-293",88%
same,effect on delta-E Torsin1a localization (in words),[1],corrected TorsinA localization in a dose-dependent fashion
same,EC50 at 48 h,[3],23.6 µM
CCCC(CCC)C(=O)O [valproic acid],effect on delta-E Torsin1a localization (in words),[1],no effect
CC(C)CN(C[C@@H](O)[C@H](Cc1ccccc1)NC(=O)O[C@H]1CO[C@H]2OCC[C@H]21)S(=O)(=O)c1ccc(N)cc1 [Darunavir],C.Luc. Secretion Assay Secretion EC50,luciferase secretion,No Activity
same,ΔE TorsinA Mislocalization Assay Localization EC50,[1],No Activity
CC(C)(C)NC(=O)[C@@H]1C[C@@H]2CCCC[C@@H]2CN1C[C@@H](O)[C@H](Cc1ccccc1)NC(=O)[C@H](CC(N)=O)NC(=O)c1ccc2ccccc2n1 [Saquinavir mesylate],AC50,"[1]; Homo sapiens, Flp-In-T-REx-293",8.33 µM
same,% pathology Max Resp,[1],−84.62%
same,% pathology Efficacy,[1],−85.98%
same,AC50,[3],20.9 µM
